Results on 5 compounds are retold here after patent US20230013824A1, “COMPOSITIONS FOR THE TREATMENT OF HYPERKERATOSIS DISORDERS” (Azura Ophthalmics Ltd., priority 2016, published 2023).

Assay [1] concerns HaCaT cells. Kind of assay: MTT cell viability assay, dose response and time course. The note with it: for reduction of keratinocyte turnover or proliferation rate as determined by MTT cell viability tests: 72 hours. The format is cell-based, human. Here is the method: Cell viability was measured by MTT assay.
Untreated cells were used as negative controls. […] A proper blank control was subtracted from the measurements.
The assay was carried out in triplicate. Untreated cells were used as negative controls.
(Tetrazolium assays rely on reduction of a dye to a coloured formazan, in cell work by metabolically active cells.)

The subject of assay [2] is HaCaT keratinocyte cells. As to the kind of experiment: Cell cycle analysis by flow cytometry (FACS). Type of assay: cell-based, human. The note with it: HaCaT cells synchronized by serum deprivation, 24 hr incubation. On the technique in general: A flow cytometer gives signals particle by particle.
Experimental: HaCaT keratinocyte cells were synchronized by serum deprivation for 24 hr. […] Cell cycle was measured by FACS analysis. […] Staurosporine (100 nM) served as positive control. Mean±SEM; n=3. *p<0.05 for reduction from untreated control.
BrdU and FACS analyses were performed in one selected concentration. Two time points (24 hr and 48 hr) were chosen for the flow cytometry and one for the BrdU assay. In order to induce culture synchronization, serum-free medium was used prior of BrdU/FACS analyses in the 24 hr treatment groups.
The effect of selenium methionine on cell cycle was analyzed by flow cytometry (FACS). At the end of the treatment, the cells were harvested by trypsinization and counted. Approximately 1.3×10^6 cells were transferred to a new tube, centrifuged for 5 min at 1500 rpm (2-8° C.), and suspended in 0.5 ml of ice cold PBS. Then, the cells were fixed by adding 2.5 ml of 70% ethanol (2-8° C.) in a dropwise manner. The cells were stored at 2-8° C. for 48 hr at this stage. After 30 min of incubation, the samples were washed 3×1 mL PBS and 0.5 mL of ribonuclease stock solution (0.2 mg/mL supplemented with 0.1% (v/v) Triton x-100 in PBS) were added to the cell pellet for 1 hr at rt. This step was performed to ensure only DNA, not RNA, was stained. 0.5 mL of propidium iodide (PI, 100 μg/ml) was added to the samples still suspended in the ribonuclease stock solution. […]
Assay [3] deals with HaCaT keratinocyte cells. Kind of assay: Caspase-3 apoptosis assay. The format is cell-based, human. The note with it: HaCaT keratinocytes cell line, 72 hours. Here is the method:
Apoptosis was measured by the caspase-3 assay. Results are shown as percent of control. Staurosporine (100 nM) served as positive control. Mean±SEM; n=3. *p<0.05 for reduction from untreated control. HaCaT cells were seeded in a 96 well plates in concentration of 0.3×10^6 cells/mL in […] in complete growth medium (DMEM supplemented with 10% FBS and antibiotics). […] The assay was carried out in triplicates. Untreated cells were used as negative controls. At the end of each incubation period, cell viability and the extent of apoptosis were measured by MTT and Caspase-3 assays, respectively. A proper blank control was subtracted from the measurements.

Assay [4] relates to Human stratum corneum. Kind of assay: Thiol degradation assay ex vivo in human skin tissue. The note with it: 2 hr.
Experimental: Then, the mixtures were analyzed for free thiol moieties concentration.
The skin was cleaned, washed with PBS, and then the epidermis was peeled. The epidermis was incubated with 100 mL of 0.005% trypsin (in PBS) at 37° C. overnight. The stratum corneum was washed with HPLC grade water and transferred to a clean Eppendorf tube. The water was evaporated by SpeedVac and the stratum corneum was washed once again with ice cold hexane to exclude residuals lipids in the fraction. The solvent was removed by SpeedVac.
The stratum corneum pieces were weighed in order to determine their dry weight. 50 mg of dried stratum corneum was dissolved in 1M NaOH and mixed thoroughly for 1 hr. Stratum corneum was treated with or without the test items for 2 hr. L-acetylcysteine containing free thiol moieties served as positive control. To isolate the free thiol moieties from the mixture, the samples or blank (50 μl) were incubated with equal volume of TCA (trichloroacetic acid) for 5 min. Then, the tubes were centrifuge for 15 min at 10,000 rpm at room temperature. The pellet was evaluated. Ellman's reagent stock solution (3 mM) was prepared in methanol. […] The 96-well plates were incubated for 5 min at RT, mixed, and the optical absorbance was recorded at 412 nm. A standard calibration curve was read simultaneously without the TCA precipitation step.
Assay [5] deals with HaCaT keratinocyte cells. Kind of assay: BrdU ELISA assay of turnover rate (DNA replication). Type of assay: cell-based, human. The note with it: 48 hr incubation. For orientation: Incorporation of labelled thymidine or its analogues reports DNA synthesis.
Experimental: Turnover rate was measured by BrdU. […] Staurosporine served as positive control. Mean±SEM; n=3. *p<0.05 for reduction from untreated control.
HaCaT cells were incubated without or with the indicated concentrations of selenium cysteine for 48 hr. Turnover rate was measured by BrdU. […] Mean±SEM; n=3. *p<0.05 for reduction from untreated control.
To further investigate the impact of selenium methionine on the cells, the DNA replication rate of the cells was monitored by the BrdU assay. […] The assay was carried out in triplicate.
The BrdU ELISA assay was performed according to kit manufacturer instructions. Briefly, during the final 16 hours of culture, BrdU was added to each well. The cells were fixed, permeabilized, and DNA denatured by the addition of buffers. BrdU monoclonal antibody was pipetted into the wells and allowed to bind for one hour. Colorimetric evaluation of the turnover rate was recorded by ELISA reader. The BrdU assay captures a 16 hr window, which gives a wide view on the proliferation rate of the cells.
To further investigate the impact of selenium cysteine on the cells, the DNA replication rate of the cells was monitored by a BrdU incorporation assay. The purpose was to determine the ability of selenium cysteine at selected concentrations and times to reduce HaCaT keratinocytes cells turnover rate. The assay was carried out in triplicates. The positive control was stautosporine (100 nM). The cells were seeded in 6- or 96-well plates in complete growth medium at 37° C. with 5% CO2 under humidified atmosphere. The cells were incubated with or without selenium cysteine for the selected time points and concentrations determined in Example 6. BrdU incorporation was performed at the selected concentration and a 48 hr time point was chosen for the BrdU assay.

Consider `CCCCCCCCCCCCOS(=O)(=O)[O-].[Na+]` [SDS], for which the “cell viability (MTT)” value in assay [1] (positive control 0.1%) is “significantly decreased cell viability”.

Turning to `O=C(O)c1ccccc1O` [SA, Salicylic acid], in assay [2], the “effect on cell cycle (cell arrest properties)” value is recorded as “no cell arrest properties”. Besides, the “activation of caspase-3 apoptosis marker (apoptotic effect)” value in assay [3] is “significant increase”. For the same compound, the “elevation in thiol degradation assay releasing free SH moieties” value in assay [4] was “caused elevation”. Moreover, the “reduction of keratinocyte turnover or proliferation rate as determined by MTT cell viability tests” value (“reduction … by MTT cell viability tests” below) in assay [1] is “no dose dependent effect”. In addition, the “effect on proliferation of the cells (DNA replication, BrdU)” value in assay [5] is listed as “does not affect the proliferation”.

As for `CN[C@@H]1C[C@H]2O[C@@](C)([C@@H]1OC)n1c3ccccc3c3c4c(c5c6ccccc6n2c5c31)C(=O)NC4` [staurosporine], the “effect on proliferation of the cells (DNA replication, BrdU)” value in assay [5] is recorded as “dose-dependent reduction”.

On to selenium cysteine, for which the “reduction … by MTT cell viability tests” value in assay [1] is “significant dose-dependent effect”. Moreover, the “reduction of proliferation of keratocytes (BrdU, DNA replication)” value in assay [5] was “more than 90%”.

Regarding selenium methionine, in assay [2], the “effect on cell cycle (cell arrest properties)” value was “elongation of the S phase in the cell cycle and lowered M phase”. The “activation of caspase-3 apoptosis marker (apoptotic effect)” value in assay [3] is “significant increase”. Moreover, in assay [4], the “elevation in thiol degradation assay releasing free SH moieties” value is “up to 35%”. For the same compound, the “reduction … by MTT cell viability tests” value in assay [1] was “significant dose-dependent effect”. The “reduction of proliferation of keratocytes (BrdU, DNA replication)” value in assay [5] is reported as “up to 60%”.
